Assay results as given in US12678458B2, “Antiseptic composition” (BOBS SILVER, priority 2020, dated 2026).
≈ marks a conversion by molar mass, not a printed value.

Tests used:
[1] = test system: HRV-A16; settings: well-known antiviral compound; cited from earlier work
[2] = test system: Streptococcus pyogenes; assay: Agar diffusion test, inhibitory zones; type: cell-based; settings: S. pyogenes; 0.1 ml in 9 mm wells
[3] = test system: Candida albicans ATCC 10231 (NBIMCC 74); assay: Agar diffusion test, inhibitory zones; type: cell-based; settings: C. albicans; 0.1 ml in 9 mm wells
[4] = test system: Streptococcus pyogenes; assay: Minimum inhibitory concentrations, two-fold serial dilution in agar; type: cell-based; settings: S. pyogenes
[5] = test system: Pseudomonas aeruginosa; assay: as above; type: cell-based; settings: P. aeruginosa
[6] = test system: Total bacteria; assay: as above; type: cell-based
[7] = test system: Candida albicans; assay: as above; type: cell-based; settings: C. albicans
[8] = test system: Total Gram-negative; assay: Agar diffusion test, inhibitory zones; type: cell-based
[9] = test system: Total Gram-negative; assay: organism not typed; type: cell-based
[10] = test system: Total (all microorganisms); assay: Agar diffusion test, inhibitory zones; type: cell-based
[11] = test system: Clostridium perfringens ATCC 13124 (NBIMCC 8615); type: cell-based; settings: C. perfringens; 0.1 ml in 9 mm wells
[12] = test system: Total Gram-positive; assay: organism not typed; type: cell-based
[13] = test system: Staphylococcus aureus; assay: Minimum inhibitory concentrations, two-fold serial dilution in agar; type: cell-based; settings: S. aureus
[14] = test system: Salmonella enterica subsp. enterica ATCC 1304 (NBIMCC 8691); assay: Agar diffusion test, inhibitory zones; type: cell-based; settings: S. enterica; 0.1 ml in 9 mm wells
[15] = test system: Total Gram-positive bacteria; type: cell-based
[16] = test system: Staphylococcus aureus subsp. aureus ATCC-6538 (NBIMCC 3359); assay: Agar diffusion test, inhibitory zones; type: cell-based; settings: S. aureus; 0.1 ml in 9 mm wells
[17] = test system: Total (all microorganisms); assay: Minimum inhibitory concentrations, two-fold serial dilution in agar; type: cell-based
[18] = test system: Salmonella enterica; assay: microbe, parasite or virus in culture; type: cell-based
[19] = test system: Total bacteria; assay: Agar diffusion test, inhibitory zones; type: cell-based
[20] = test system: Clostridium perfringens; assay: microbe, parasite or virus in culture; type: cell-based
[21] = test system: Pseudomonas aeruginosa; assay: Agar diffusion test, inhibitory zones; type: cell-based; settings: P. aeruginosa; 0.1 ml in 9 mm wells
[22] = test system: Esherichia coli; assay: Minimum inhibitory concentrations, two-fold serial dilution in agar; type: cell-based, Escherichia coli; settings: E. coli
[23] = test system: Esherichia coli ATCC-8739 (NBIMCC 3397); assay: Agar diffusion test, inhibitory zones; type: cell-based, Escherichia coli; settings: E. coli; 0.1 ml in 9 mm wells

**Q.** Which antiviral response [1] does the source give for `CCOC(=O)/C=C/[C@H](C[C@@H]1CCNC1=O)NC(=O)[C@@H](CC(=O)[C@@H](NC(=O)c1cc(C)on1)C(C)C)Cc1ccc(F)cc1` [rupintrivir] here?
**A.** almost complete response

**Q.** What does the source list for `CS(=O)(=O)c1ccc([C@@H](O)[C@@H](CO)NC(=O)C(Cl)Cl)cc1` [Thiamphenicol, thiamphenicol]?
**A.** Inhibitory zones in mm [2]: 26.0 ± 4.5 mm; Inhibitory zones in mm [3]: 28.7 ± 3.7 mm; Th D [4]: 128 µg/mL; MIC50 ([4]; Streptococcus pyogenes, read-out: Th MIC50): 32 µg/mL (≈ 89.8 µM); Th D [5]: 64 µg/mL; MIC50 ([5]; Pseudomonas aeruginosa, read-out: Th MIC50): 8 µg/mL (≈ 22.5 µM); Th D [6]: 66.7 µg/mL; MIC50 ([6]; Total bacteria, read-out: Th MIC50): 14 µg/mL (≈ 39.3 µM); Th D [7]: 128 µg/mL; MIC50 ([7]; Candida albicans, read-out: Th MIC50): 32 µg/mL (≈ 89.8 µM); Inhibitory zones in mm [8]: 35.4 ± 0.5 mm; Th D [9]: 64.00 µg/mL; MIC50 ([9]; read-out: Th MIC50): 10.7 µg/mL (≈ 30 µM); Inhibitory zones in mm [10]: 29.7 ± 5.3 mm; Inhibitory zones in mm [11]: 21.3 ± 0.5 mm; Th D [12]: 42.00 µg/mL; MIC50 ([12]; read-out: Th MIC50): 21 µg/mL (≈ 59 µM); Th D [13]: 64 µg/mL; MIC50 ([13]; Staphylococcus aureus, read-out: Th MIC50): 16 µg/mL (≈ 44.9 µM); Inhibitory zones in mm [14]: 35.3 ± 0.8 mm; Inhibitory zones in mm [15]: 24.3 ± 2.1 mm; Inhibitory zones in mm [16]: 25.7 ± 3.3 mm; Th D [17]: 84.00 µg/mL; MIC50 ([17]; Total (all microorganisms), read-out: Th MIC50): 16.6 µg/mL (≈ 46.5 µM); Th D ([18]; S. enterica): 64 µg/mL; MIC50 ([18]; Salmonella enterica, read-out: Th MIC50): 16 µg/mL (≈ 44.9 µM); Inhibitory zones in mm [19]: 29.9 ± 5.7 mm; Th D ([20]; C. perfringens): 16 µg/mL; MIC50 ([20]; Clostridium perfringens, read-out: Th MIC50): 4 µg/mL (≈ 11.2 µM); Inhibitory zones in mm [21]: 34.8 ± 0.8 mm; Th D [22]: 64 µg/mL; MIC50 ([22]; Escherichia coli, read-out: Th MIC50): 8 µg/mL (≈ 22.5 µM); Inhibitory zones in mm [23]: 36.0 ± 0.8 mm
